Test results as given in the NIST ThermoML archive (doi:10.1021/je300175w).
Several values for one entry are separate records, joined by “and”; a condition that tells them apart may be missing. Equal entries are not always repeated.

Experiment: mn = molality of the nth substance listed, in mol/kg
Details: 101 kPa, Liquid; for mass density: Vibrating tube method; for speed of sound: Sing-around technique in a fixed-path interferometer

CC(C)(CO)CO [2,2-dimethyl-1,3-propanediol] + O
Details | mass density | speed of sound
273.15 K, m1 = 0.1001 | 1000.25 kg/m3 | –
273.15 K, m1 = 0.2006 | 1000.57 kg/m3 | –
273.15 K, m1 = 0.2997 | 1000.91 kg/m3 | –
273.15 K, m1 = 0.4021 | 1001.28 kg/m3 | –
273.15 K, m1 = 0.5001 | 1001.66 kg/m3 | –
273.15 K, m1 = 0.6007 | 1002.07 kg/m3 | –
278.15 K, m1 = 0.1001 | – | 1435.8 m/s
278.15 K, m1 = 0.2006 | – | 1445.4 m/s
278.15 K, m1 = 0.2997 | – | 1454.5 m/s
278.15 K, m1 = 0.4021 | – | 1463.8 m/s
278.15 K, m1 = 0.5001 | – | 1472.5 m/s
278.15 K, m1 = 0.6007 | – | 1481.3 m/s
283.15 K, m1 = 0.1001 | 999.968 kg/m3 and 999.967 kg/m3 | 1456.2 m/s
283.15 K, m1 = 0.2006 | 1000.26 kg/m3 | 1464.9 m/s
283.15 K, m1 = 0.2997 | 1000.57 kg/m3 | 1473.3 m/s and 1473.4 m/s
283.15 K, m1 = 0.4021 | 1000.92 kg/m3 | 1481.9 m/s
283.15 K, m1 = 0.5001 | 1001.26 kg/m3 | 1489.9 m/s
283.15 K, m1 = 0.6007 | 1001.63 kg/m3 and 1001.64 kg/m3 | 1497.9 m/s and 1498 m/s
288.15 K, m1 = 0.1001 | 999.35 kg/m3 and 999.351 kg/m3 | 1474.1 m/s and 1474.2 m/s
288.15 K, m1 = 0.2006 | 999.623 kg/m3 | 1482.2 m/s
288.15 K, m1 = 0.2997 | 999.911 kg/m3 and 999.913 kg/m3 | 1490 m/s and 1489.9 m/s
288.15 K, m1 = 0.4021 | 1000.23 kg/m3 | 1497.8 m/s
288.15 K, m1 = 0.5001 | 1000.54 kg/m3 and 1000.55 kg/m3 | 1505.2 m/s
288.15 K, m1 = 0.6007 | 1000.88 kg/m3 | 1512.6 m/s
293.15 K, m1 = 0.1001 | 998.435 kg/m3 and 998.438 kg/m3 and 998.44 kg/m3 | 1489.9 m/s
293.15 K, m1 = 0.2006 | 998.688 kg/m3 and 998.69 kg/m3 and 998.693 kg/m3 | 1497.4 m/s and 1497.3 m/s
293.15 K, m1 = 0.2997 | 998.956 kg/m3 and 998.958 kg/m3 and 998.96 kg/m3 | 1504.5 m/s
293.15 K, m1 = 0.4021 | 999.245 kg/m3 and 999.25 kg/m3 and 999.252 kg/m3 | 1511.8 m/s
293.15 K, m1 = 0.5001 | 999.536 kg/m3 and 999.541 kg/m3 and 999.543 kg/m3 | 1518.5 m/s
293.15 K, m1 = 0.6007 | 999.846 kg/m3 and 999.849 kg/m3 and 999.851 kg/m3 | 1525.3 m/s
298.15 K, m1 = 0.1001 | 997.263 kg/m3 and 997.264 kg/m3 and 997.261 kg/m3 | 1503.7 m/s
298.15 K, m1 = 0.2006 | 997.499 kg/m3 | 1510.5 m/s and 1510.6 m/s
298.15 K, m1 = 0.2997 | 997.744 kg/m3 and 997.745 kg/m3 and 997.742 kg/m3 | 1517.1 m/s and 1517.2 m/s
298.15 K, m1 = 0.4021 | 998.013 kg/m3 and 998.015 kg/m3 | 1523.8 m/s and 1523.9 m/s
298.15 K, m1 = 0.5001 | 998.28 kg/m3 and 998.279 kg/m3 and 998.282 kg/m3 | 1530 m/s and 1530.1 m/s
298.15 K, m1 = 0.6007 | 998.56 kg/m3 and 998.559 kg/m3 and 998.562 kg/m3 | 1536.2 m/s and 1536.3 m/s
303.15 K, m1 = 0.1001 | 995.849 kg/m3 and 995.85 kg/m3 | 1515.6 m/s
303.15 K, m1 = 0.2006 | 996.066 kg/m3 and 996.067 kg/m3 | 1521.9 m/s
303.15 K, m1 = 0.2997 | 996.293 kg/m3 and 996.294 kg/m3 | 1528 m/s
303.15 K, m1 = 0.4021 | 996.538 kg/m3 and 996.539 kg/m3 | 1534.1 m/s
303.15 K, m1 = 0.5001 | 996.781 kg/m3 | 1539.9 m/s and 1539.8 m/s
303.15 K, m1 = 0.6007 | 997.037 kg/m3 and 997.036 kg/m3 | 1545.6 m/s and 1545.5 m/s
308.15 K, m1 = 0.1001 | 994.216 kg/m3 and 994.215 kg/m3 | 1525.8 m/s
308.15 K, m1 = 0.2006 | 994.415 kg/m3 and 994.416 kg/m3 | 1531.6 m/s and 1531.5 m/s
308.15 K, m1 = 0.2997 | 994.624 kg/m3 and 994.621 kg/m3 | 1537.2 m/s and 1537.1 m/s
308.15 K, m1 = 0.4021 | 994.845 kg/m3 and 994.847 kg/m3 | 1542.8 m/s
308.15 K, m1 = 0.5001 | 995.067 kg/m3 and 995.065 kg/m3 and 995.068 kg/m3 | 1548 m/s and 1548.1 m/s
308.15 K, m1 = 0.6007 | 995.297 kg/m3 and 995.296 kg/m3 and 995.298 kg/m3 | 1553.2 m/s and 1553.1 m/s
318.15 K, m1 = 0.1001 | 990.368 kg/m3 and 990.367 kg/m3 | 1541.5 m/s and 1541.4 m/s
318.15 K, m1 = 0.2006 | 990.531 kg/m3 and 990.532 kg/m3 and 990.533 kg/m3 | 1546.4 m/s and 1546.3 m/s
318.15 K, m1 = 0.2997 | 990.701 kg/m3 and 990.7 kg/m3 | 1551 m/s
318.15 K, m1 = 0.4021 | 990.883 kg/m3 and 990.882 kg/m3 | 1555.6 m/s and 1555.7 m/s
318.15 K, m1 = 0.5001 | 991.06 kg/m3 and 991.057 kg/m3 and 991.058 kg/m3 | 1559.9 m/s and 1560 m/s
318.15 K, m1 = 0.6007 | 991.242 kg/m3 and 991.241 kg/m3 | 1564.2 m/s and 1564.3 m/s

CC(C)(C)CO [2,2-dimethyl-1-propanol] + O
speed of sound
Details | 278.15 K | 283.15 K | 288.15 K | 293.15 K | 298.15 K | 308.15 K | 318.15 K
m1 = 0.0485 | 1430.2 m/s | 1452.5 m/s | 1470.7 m/s | 1486.8 m/s | 1500.7 m/s | 1523.3 m/s and 1523.1 m/s | 1539.1 m/s and 1539.2 m/s
m1 = 0.09995 | 1434.4 m/s | 1457.9 m/s and 1458 m/s | 1475.7 m/s | 1491.3 m/s | 1504.9 m/s | 1526.6 m/s and 1526.4 m/s | 1541.8 m/s
m1 = 0.1472 | 1438.2 m/s and 1438.1 m/s | 1463 m/s and 1462.9 m/s | 1480.2 m/s | 1495.5 m/s | 1508.7 m/s | 1529.7 m/s and 1529.5 m/s | 1544.3 m/s and 1544.2 m/s
m1 = 0.1999 | 1442.3 m/s | 1468.5 m/s and 1468.4 m/s | 1485.2 m/s | 1500 m/s | 1512.8 m/s | 1532.9 m/s | 1546.9 m/s

CCC(CO)(CO)CO [2-ethyl-2-(hydroxymethyl)-1,3-propanediol] + O
speed of sound
Details | 278.15 K | 283.15 K | 288.15 K | 293.15 K | 298.15 K | 308.15 K | 318.15 K
m1 = 0.09974 | 1436 m/s and 1436.1 m/s | 1456.4 m/s and 1456.5 m/s | 1474.5 m/s | 1490.3 m/s | 1504.1 m/s | 1526.5 m/s and 1526.2 m/s | 1542.2 m/s and 1542 m/s
m1 = 0.1998 | 1445.7 m/s | 1465.3 m/s and 1465.4 m/s | 1482.8 m/s | 1498 m/s | 1511.3 m/s | 1532.7 m/s and 1532.4 m/s | 1547.6 m/s and 1547.4 m/s
m1 = 0.3 | 1455.1 m/s | 1474.1 m/s | 1490.9 m/s | 1505.6 m/s | 1518.3 m/s | 1538.9 m/s and 1538.5 m/s | 1552.8 m/s and 1552.7 m/s
m1 = 0.3961 | 1464 m/s | 1482.3 m/s and 1482.4 m/s | 1498.5 m/s | 1512.7 m/s | 1524.9 m/s | 1544.6 m/s and 1544.3 m/s | 1557.4 m/s and 1557.6 m/s
m1 = 0.5048 | 1473.8 m/s | 1491.4 m/s | 1507 m/s | 1520.5 m/s | 1532.2 m/s | 1550.9 m/s and 1550.5 m/s | 1562.8 m/s and 1563 m/s

CC(CO)CO [2-methyl-1,3-propanediol] + O
speed of sound
Details | 278.15 K | 283.15 K | 288.15 K | 293.15 K | 298.15 K | 308.15 K | 318.15 K
m1 = 0.1097 | 1434 m/s | 1454.5 m/s and 1454.4 m/s | 1472.6 m/s | 1488.5 m/s | 1502.3 m/s and 1502.4 m/s | 1524.7 m/s | 1540.4 m/s and 1540.6 m/s
m1 = 0.1997 | 1440.3 m/s and 1440.4 m/s | 1460.3 m/s | 1477.9 m/s and 1478 m/s | 1493.4 m/s | 1506.9 m/s | 1528.6 m/s | 1543.8 m/s and 1544 m/s
m1 = 0.3091 | 1448 m/s | 1467.3 m/s | 1484.4 m/s | 1499.4 m/s | 1512.4 m/s | 1533.6 m/s and 1533.3 m/s | 1547.8 m/s and 1548 m/s
m1 = 0.3983 | 1454.1 m/s | 1472.9 m/s and 1473 m/s | 1489.6 m/s | 1504.1 m/s and 1504.2 m/s | 1516.8 m/s | 1537.3 m/s and 1537 m/s | 1551.1 m/s and 1551.2 m/s

CCC(CO)(CO)COCC(CC)(CO)CO [3,3,7,7-tetrakis(hydroxymethyl)-5-oxanonane] + O
speed of sound
Details | 278.15 K | 283.15 K | 288.15 K | 293.15 K | 298.15 K | 308.15 K | 318.15 K
m1 = 0.01972 | 1429.8 m/s | 1450.6 m/s | 1469 m/s | 1485.2 m/s | 1499.3 m/s | 1522.2 m/s and 1522 m/s | 1538.2 m/s and 1538.3 m/s
m1 = 0.04105 | 1433.6 m/s and 1433.7 m/s | 1454.1 m/s | 1472.3 m/s | 1488.2 m/s | 1502.1 m/s | 1524.5 m/s and 1524.3 m/s | 1540.2 m/s and 1540.3 m/s
m1 = 0.06045 | 1437.1 m/s | 1457.3 m/s | 1475.2 m/s | 1490.9 m/s | 1504.6 m/s | 1526.6 m/s and 1526.4 m/s | 1542 m/s and 1542.1 m/s
m1 = 0.079 | 1440.3 m/s | 1460.3 m/s | 1478 m/s | 1493.4 m/s | 1506.9 m/s | 1528.6 m/s and 1528.4 m/s | 1543.7 m/s and 1543.8 m/s
